# Patent US12649751B2 (Arcus Biosciences, Inc., priority 2022, dated 2026)
# Where two headings read alike, the source gives them in different places.
# How the values were obtained:
# [1] = system: p-SLP-76 (Ser376) in Jurkat cells; experiment: pSLP76 Cellular Assay (AlphaLISA SureFire Ultra p-SLP-76 (Ser376), anti-CD3 activated Jurkat cells); format: cell-based; details: Homo sapiens, read-out: Cellular Potency
# Protocol: pSLP76 cellular assay was performed using Jurkat cells and the AlphaLISA SureFire Ultra p-SLP-76 (Ser376) Assay Kit (PerkinElmer). Dose-response assays were performed in Greiner® Low Volume 384-well assay plates containing 200 nL of 22 serial 2-fold compound dilutions using Bravo and Echo. Jurkat cells were grown in RPMI-1640 supplemented with 10% FBS and PSG. The day prior to the assay, the cells were collected, and serum starved overnight in Opti-MEM. The day of the assay, the cells were collected and resuspended in HBSS. 100,000 cells/well were added to the compound plates and after a short spin, the plates were incubated at 37° C. for 1 h. The cells were activated by adding 10 μL of 0.025 mg/ml anti-CD3. Plates were then incubated at 37° C. for 45 min. Stimulation was terminated by adding […], followed by a brief centrifugation and 60 min of shaking at 300 rpm. Cell lysates (10 μL) were transferred to 384-well White Opti-plates and the samples were processed according to the manufacturer's directions. The fluorescence signal from pSLP76 was measured at 570 nm using Envision plate reader. IC50 values were determined by fitting the data to a standard 4-parameter logistic equation. The results are summarized in the Cellular Potency columns in Tables 4 and 5 below (Cellular Potency).
# [2] = molecular target: HPK1 (Homo sapiens, UniProt Q92918); experiment: HPK1 Biochemical Assay (ADP-Glo luminescence; low ATP 10 μM or high ATP 200 μM)
# [3] = Jurkat cells, anti-CD3 stimulation, pSLP76
# [4] = 2 nM HPK1, 10 μM ATP, read-out: Biochemical Potency (low ATP)
# [5] = pSLP76 (Ser376) AlphaLISA, anti-CD3 activated Jurkat cells
# [6] = HPK1 ADP-Glo assay, high ATP (200 μM ATP, 5 nM HPK1), read-out: Biochemical Potency (high ATP)
# [7] = HPK1 ADP-Glo assay, low ATP (10 μM ATP, 2 nM HPK1), read-out: Biochemical Potency (low ATP)
# Chain of HPK1 (Q92918 whole entry, species assumed): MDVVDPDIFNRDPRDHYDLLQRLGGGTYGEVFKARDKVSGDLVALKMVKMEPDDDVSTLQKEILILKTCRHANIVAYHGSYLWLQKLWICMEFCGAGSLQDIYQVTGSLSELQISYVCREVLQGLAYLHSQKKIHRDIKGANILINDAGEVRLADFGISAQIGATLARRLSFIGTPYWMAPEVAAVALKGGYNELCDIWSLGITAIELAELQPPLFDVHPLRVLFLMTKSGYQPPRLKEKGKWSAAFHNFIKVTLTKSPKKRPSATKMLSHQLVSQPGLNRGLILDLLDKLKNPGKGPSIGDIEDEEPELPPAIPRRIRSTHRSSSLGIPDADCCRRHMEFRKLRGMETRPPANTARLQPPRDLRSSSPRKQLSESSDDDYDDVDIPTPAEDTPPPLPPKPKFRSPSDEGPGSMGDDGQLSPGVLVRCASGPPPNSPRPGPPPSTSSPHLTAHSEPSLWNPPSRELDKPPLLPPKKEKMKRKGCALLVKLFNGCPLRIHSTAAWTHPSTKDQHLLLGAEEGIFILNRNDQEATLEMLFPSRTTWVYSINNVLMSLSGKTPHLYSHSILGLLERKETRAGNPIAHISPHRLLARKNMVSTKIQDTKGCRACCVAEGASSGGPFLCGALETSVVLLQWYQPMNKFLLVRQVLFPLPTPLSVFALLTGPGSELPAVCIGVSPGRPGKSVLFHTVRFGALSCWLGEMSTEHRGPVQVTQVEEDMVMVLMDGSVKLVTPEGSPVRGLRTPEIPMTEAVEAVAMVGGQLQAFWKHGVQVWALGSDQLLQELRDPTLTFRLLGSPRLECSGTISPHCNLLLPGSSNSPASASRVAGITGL
Structure (SMILES),"IC50 [1, 3] [nM]","IC50 [2, 4] [nM]","IC50 [1, 5] [nM]","IC50 [2, 6] [nM]","IC50 [2, 7] [nM]"
"CC(C)(N)c1nc(Nc2cc3nc(-c4c(F)cccc4F)sc3cn2)ccc1N1CCOCC1 [Example 269, 6-(2-Aminopropan-2-yl)-N-[2-(2,6-difluorophenyl)-[1,3]thiazolo[5,4-c]pyridin-6-yl]-5-(morpholin-4-yl)pyridin-2-amine]",1000 to 5000,< 100,,,
CCOCCN1C[C@@H]2C[C@H]1CN2c1nc(C)cc(Nc2cc3nc(-c4cccc(C(=O)N(C)C)c4)sc3cn2)n1 [Example 489],,,100 to 1000,< 100,
Cc1c(N)cncc1-c1nc2cc(Nc3ccc4c(c3)CCC(N3CCCC3)CC4)ncc2s1 (centres unmarked) [Example 330],,,5000 to 25000,,< 100
CN1C[C@@H]2C[C@H]1CN2c1cncc(Nc2cc3nc(-c4cccc(NS(C)(=O)=O)c4)sc3cn2)n1 [Example 412],,,100 to 1000,< 100,< 100
c1cc(Nc2cc3nc(-c4ncco4)sc3cn2)nc(N2C[C@@H]3C[C@H]2CN3)n1 [Example 409],,,100 to 1000,< 100,< 100
Cc1cc(Nc2cc3nc(-c4ccnc(N5CCOCC5)c4)sc3cn2)nc(N2C[C@@H]3C[C@H]2CN3CCO)n1 [Example 458],,,100 to 1000,< 100,
"CN1C[C@@H]2C[C@H]1CN2c1cccc(Nc2cc3nc(-c4cccc(C(N)=O)c4)sc3cn2)n1 [Example 128, 3-[6-({6-[(1S,4S)-5-Methyl-2,5-diazabicyclo[2.2.1]heptan-2-yl]pyridin-2-yl}amino)-[1,3]thiazolo[5,4-c]pyridin-2-yl]benzamide]",100 to 1000,< 100,,,
Cc1cc(C(=O)N(C)C)cc(-c2nc3cc(Nc4cc(C)cc(N5C[C@@H]6C[C@H]5CN6CCO)n4)ncc3s2)c1 [Example 347],,,< 100,< 100,
"Cc1cccnc1-c1nc2cc(Nc3ccc(F)c(N4C[C@@H]5C[C@H]4CN5)n3)ncc2s1 [Example 83, 6-[(1S,4S)-2,5-Diazabicyclo[2.2.1]heptan-2-yl]-5-fluoro-N-[2-(3-methylpyridin-2-yl)-[1,3]thiazolo[5,4-c]pyridin-6-yl]pyridin-2-amine]",100 to 1000,< 100,,,
"Cc1cc(NCc2nccn2C)nc(Nc2cc3nc(-c4ccnc(C)c4)sc3cn2)c1 [Example 76, 4-Methyl-N2-[(1-methyl-1H-imidazol-2-yl)methyl]-N6-[2-(2-methylpyridin-4-yl)-[1,3]thiazolo[5,4-c]pyridin-6-yl]pyridine-2,6-diamine]",1000 to 5000,< 100,,,
"CC(C)(N)c1nc(Nc2cc3nc(-c4c(F)cccc4F)sc3cn2)ccc1N1CCC(F)(F)C1 [Example 271, 6-(2-Aminopropan-2-yl)-N-[2-(2,6-difluorophenyl)-[1,3]thiazolo[5,4-c]pyridin-6-yl]-5-(3,3-difluoropyrrolidin-1-yl)pyridin-2-amine]",1000 to 5000,< 100,,,
Cc1cc(Nc2cc3nc(-c4cccc(C#Cc5cnn(C)c5)c4)sc3cn2)nc(N2C[C@@H]3C[C@H]2CN3CCO)n1 [Example 362],,,1000 to 5000,< 100,
"c1ccc(-c2nc3cc(Nc4ccc(N5CCOCC5)c(CN5CCCC5)n4)ncc3s2)nc1 [Example 7, 5-(Morpholin-4-yl)-N-[2-(pyridin-2-yl)-[1,3]thiazolo[5,4-c]pyridin-6-yl]-6-[(pyrrolidin-1-yl)methyl]pyridin-2-amine]",1000 to 5000,< 100,,,
CC(=O)N1CCC(N2C[C@@H]3C[C@H]2CN3c2nc(C)cc(Nc3cc4nc(-c5cccc(C(=O)N(C)C)c5)sc4cn3)n2)CC1 [Example 332],,,1000 to 5000,< 100,
Cc1cc(Nc2cc3nc(-c4cccc(C(N)=O)c4)sc3cn2)nc(N2C[C@@H]3C[C@H]2CN3CCO)n1 [Example 553],,,1000 to 5000,< 100,
Cc1cc(Nc2cc3nc(-c4cccc(C(=O)N5CCCCC5)c4)sc3cn2)nc(N2C[C@@H]3C[C@H]2CN3CCO)n1 [Example 352],,,< 100,< 100,
CCN1C[C@@H]2C[C@H]1CN2c1nc(C)cc(Nc2cc3nc(Oc4cccnc4)sc3cn2)n1 [Example 484],,,< 100,< 100,

Structure (SMILES),"IC50 [1, 3] [nM]","IC50 [2, 4] [nM]","IC50 [1, 5] [nM]","IC50 [2, 6] [nM]","IC50 [2, 7] [nM]"
Cc1cccnc1-c1nc2cc(Nc3cc(C(F)(F)F)cc(N4C[C@@H]5C[C@H]4CN5C)n3)ncc2s1 [Example 323],,,100 to 1000,< 100,< 100
"Cc1ccc(Nc2cc3nc(-c4ncccc4C)sc3cn2)nc1CN1CC[C@H](F)C1 [Example 43, 6-{[(3S)-3-Fluoropyrrolidin-1-yl]methyl}-5-methyl-N-[2-(3-methylpyridin-2-yl)-[1,3]thiazolo[5,4-c]pyridin-6-yl]pyridin-2-amine]",> 5000,< 100,,,
Cc1cc(-c2nc3cc(Nc4cc(C)nc(N5C[C@@H]6C[C@H]5CN6CCO)n4)ncc3s2)cc(C2CC2)n1 [Example 537],,,100 to 1000,< 100,
COCCn1cc(-c2nc3cc(Nc4cc(C)nc(N5C[C@@H]6C[C@H]5CN6C)n4)ncc3s2)cn1 [Example 376],,,100 to 1000,< 100,
"CCN1C[C@@H]2C[C@H]1CN2c1nc(C)cc(Nc2cc3nc(-c4nc(N)ccc4C)sc3cn2)n1 [Example 296, N-[2-(6-amino-3-methylpyridin-2-yl)-[1,3]thiazolo[5,4-c]pyridin-6-yl]-2-[(1S,4S)-5-ethyl-2,5-diazabicyclo[2.2.1]heptan-2-yl]-6-methylpyrimidin-4-amine]",,,< 100,< 100,
"Cc1ccc(-c2nc3cc(Nc4cccc(N5C[C@@H]6C[C@H]5CN6C)n4)ncc3s2)c(C)n1 [Example 129, N-[2-(2,6-Dimethylpyridin-3-yl)-[1,3]thiazolo[5,4-c]pyridin-6-yl]-6-[(1S,4S)-5-methyl-2,5-diazabicyclo[2.2.1]heptan-2-yl]pyridin-2-amine]",> 5000,< 100,,,
"Cc1cccnc1-c1nc2cc(Nc3ccc4c(n3)CNCC4)ncc2s1 [Example 300, N-[2-(3-methylpyridin-2-yl)-[1,3]thiazolo[5,4-c]pyridin-6-yl]-5,6,7,8-tetrahydro-1,7-naphthyridin-2-amine]",,,1000 to 5000,,< 100
Cc1cc(Nc2cc3nc(-c4cnn(CC5CCCCO5)c4)sc3cn2)nc(N2C[C@@H]3C[C@H]2CN3C)n1 (some centres unmarked) [Example 363],,,100 to 1000,< 100,
Cc1cc(Nc2cc3nc(-c4cccc(C(=O)N5CCC[C@H]5C)c4)sc3cn2)nc(N2C[C@@H]3C[C@H]2CN3CCO)n1 [Example 550],,,100 to 1000,< 100,
Cc1cccnc1-c1nc2cc(Nc3cc(C4CCOCC4)nc(N4C[C@@H]5C[C@H]4CN5)n3)ncc2s1 [Example 444],,,< 100,,< 100
"Cc1cccnc1-c1nc2cc(Nc3cccc(N4C[C@@H](C)N(C)[C@@H](C)C4)n3)ncc2s1 [Example 100, N-[2-(3-Methylpyridin-2-yl)-[1,3]thiazolo[5,4-c]pyridin-6-yl]-6-[(3R,5S)-3,4,5-trimethylpiperazin-1-yl]pyridin-2-amine]",> 5000,< 100,,,
Cc1cc(Nc2cc3nc(-c4cccc5c4CCN(C)C5=O)sc3cn2)nc(N2C[C@@H]3C[C@H]2CN3C)n1 [Example 398],,,1000 to 5000,100 to 1000,
"Cc1ccncc1-c1nc2cc(Nc3cccc(N4C[C@@H]5C[C@H]4CN5C)n3)ncc2s1 [Example 139, 6-[(1S,4S)-5-Methyl-2,5-diazabicyclo[2.2.1]heptan-2-yl]-N-[2-(4-methylpyridin-3-yl)-[1,3]thiazolo[5,4-c]pyridin-6-yl]pyridin-2-amine]",100 to 1000,< 100,,,
Cc1cccnc1-c1nc2cc(Nc3cc(C(C)C)nc(N4C[C@@H]5C[C@H]4CN5)n3)ncc2s1 [Example 435],,,100 to 1000,< 100,
"CN1C[C@@H]2C[C@H]1CN2c1cccc(Nc2cc3nc(-c4cccc(C(C)(C)O)c4)sc3cn2)n1 [Example 132, 2-{3-[6-({6-[(1S,4S)-5-Methyl-2,5-diazabicyclo[2.2.1]heptan-2-yl]pyridin-2-yl}amino)-[1,3]thiazolo[5,4-c]pyridin-2-yl]phenyl}propan-2-ol]",< 100,< 100,,,
Cc1cc(Nc2cc3nc(-c4ccnc(N5C[C@@H](C)O[C@@H](C)C5)c4)sc3cn2)nc(N2C[C@@H]3C[C@H]2CN3CCO)n1 [Example 445],,,100 to 1000,< 100,
"CN1C[C@@H]2C[C@H]1CN2c1cccc(Nc2cc3nc(-c4cncc(S(C)(=O)=O)c4)sc3cn2)n1 [Example 131, N-[2-(5-Methanesulfonylpyridin-3-yl)-[1,3]thiazolo[5,4-c]pyridin-6-yl]-6-[(1S,4S)-5-methyl-2,5-diazabicyclo[2.2.1]heptan-2-yl]pyridin-2-amine]",1000 to 5000,< 100,,,
